Measured values taken from patent US8962576B2, “Compositions and method for improving endothelial function and cardiovascular health” (Natreon, Inc., priority 2012, dated 2015).
Where “and” joins values, the source holds several entries; their conditions need not be identical. Identical values can stand only once.

Tests used:
Type in all cases: in vivo, human
Type 2 Diabetic Subjects [1] = assay: Lipid profile, study (a), 12 weeks treatment; settings: Sensoril or Capros 250 mg twice daily, Atorvastatin 10 mg at night, n = 10
Method: Study (a) design. Patients of either sex, aged 18-75 years, fasting plasma glucose of ≧110 mg/dL, a glycosylated hemoglobin (HbA1c) between 7% and 10% and taking stable doses of anti-diabetic treatment for the past 8 weeks prior to the screening visit; and having endothelial dysfunction defined as ≦6% change in reflection index (RI) on post salbutamol challenge test were included in the study. Patients with severe uncontrolled hyperglycaemia, uncontrolled hypertension, cardiac arrhythmia, impaired hepatic or renal function, history of malignancy or stroke, smoking, chronic alcoholism, any other serious disease requiring active treatment and treatment with any other herbal supplements, were excluded from the study. Pregnant and lactating women were also excluded.
All the eligible subjects were randomized to receive either one of the four treatments for duration of 12 weeks. There were ten (10) subjects per group. […] Subjects were asked to revisit for follow up at 4, 8 and 12 weeks of therapy. At each visit they were evaluated for efficacy and safety. Pharmacodynamic evaluation for endothelial function was conducted at every visit. Blood samples were collected for evaluation of biomarkers before and at the end of treatment. Safety lab investigations were conducted before and at the end of the study and as and when required in case of any adverse drug reaction (ADR). Subjects were examiner and/or surveyed for the presence of ADR and the same was recorded in the case report form. Compliance was assessed by pill count method.
All the subjects had undergone complete physical examination, safety lab evaluations at baseline, i.e., prior to treatment, and at the end of the treatment. Samples were collected after an overnight fast of 12 hrs after the last dose of medication for determination of haemoglobin level, glycosylated hemoglobin (HbA1c), urea and creatinine levels, liver function, and lipid profile (total cholesterol, high density lipoprotein cholesterol (HDL-C), and low density lipoprotein cholesterol (LDL-C)). Plasma glucose, liver function test, blood urea, serum creatinine and HbA1c were measured using appropriate standard techniques.

Type 2 Diabetic Subjects [2] = assay: Other cardiovascular pharmacodynamic parameters (AIx, SEVR, ABI, PWV, CO, SVR), study (c); settings: CAPROS 250 mg twice daily, Atorvastatin 10 mg daily, n = 20
Method: The augmentation index (AIx, defined as augmented pressure divided by pulse pressure and expressed as a percentage) is thus a composite measure of the magnitude of wave reflections and arterial stiffness, which affects timing of wave reflections. Because the augmentation index is influenced by changes in heart rate (HR), it is also accordingly corrected (AIx@75). The augmentation index was measured by using a validated, commercially available system (SphygmoCor; AtCor Medical, Sydney, Australia) that employs the principle of applanation tonometry and appropriate acquisition and analysis software for noninvasive recording and analysis of the arterial pulse. […] Waveforms of radial pressure were calibrated according to sphygmomanometric systolic and diastolic pressure measured in the brachial artery because there is practically negligible pressure pulse amplification between the brachial and the radial artery.
The subendocardial viability index, an indicator of myocardial workload and perfusion (O2 supply vs. demand) was calculated as the ratio of the integral of diastolic pressure and time to the integral of systolic pressure and time.
Brachial-ankle pulse wave velocity (baPWV) is also used to evaluate arterial stiffness. Pulse wave velocity is the speed at which the blood pressure pulse travels from the heart to the peripheral artery after blood rushes out during contraction. It is mainly used to evaluate stiffness of the artery wall. Pulse wave velocity increases with stiffness of the arteries. The PTT (Pulse Transit Time) of each segment is calculated from the waveform taken from each sensor. Pulse wave velocity is defined in Equation (1): […]
Brachial Ankle Pulse Wave Velocity (baPWV), Ankle Brachial Index (ABI) and Blood Pressure (BP) were measured using an automatic waveform analyzer (model BP-203 RPE; Colin Medical Technology, Komaki, Japan). Measurements were taken with patients lying in a supine position after 5 minutes of rest in that position. Occlusion and monitoring cuffs were placed snugly around both sites of the upper and lower extremities of patients. Pressure waveforms of the brachial and tibial arteries were then recorded simultaneously by an oscillometric method. Measurement of right and left baPWV was obtained for an average of 10 seconds. The average of left and right baPWV will be used for analysis.
Recording of cardiac output (CO) was performed using L&T Nivomon monitor (Larsen & Toubro Ltd., Mumbai, India). Noninvasive continuous cardiac output monitor with peripheral blood flow measurement option. This equipment is very useful and versatile. It calculates many cardiac parameters directly including cardiac output. It works on the features of impedance plethysmography principle and has tetrapolar configuration. The advantage is that this equipment directly calculates the cardiac output along with other parameters using the pulse wave.
(§1) After screening, all the eligible subjects were randomized to receive either one of the four treatments for a duration of 12 weeks, as follows.
The clinical measurements and pharmacodynamic tests were performed as described above in studies (a) or (b), unless otherwise stated.

Type 2 Diabetic Subjects [3] = assay: Biomarkers of oxidative stress and hsCRP, study (c); settings: CAPROS 250 mg twice daily, Atorvastatin 10 mg daily, n = 20
Method: Malondialdehyde (MDA) levels were determined as described in Vidyasagar, et al., “Oxidative stress and antioxidant status in acute organophosphorous insecticide poisoning,” Indian J. Pharmacol. (April 2004) 36(2): 76-79. Glutathione levels were determined as described in G. L. Ellman, Arch. Biochem. Biophys. (1959) 82: 70-77 (original determination). Nitric oxide levels were estimated spectrophotometrically as described in Miranda, et al., “A Rapid, Simple Spectrophotometric Method for Simultaneous Detection of Nitrate and Nitrite,” NITRIC OXIDE: Biology and Chemistry (2001) Vol. 5, No. 1, pp. 62-71.
as §1
Nitric oxide, MDA, Glutathione (GSH) and levels thereof were estimated spectrophotometrically as described above, and HsCRP (high sensitivity C-reactive protein) by ELISA method.

Question: CC(C)c1c(C(=O)Nc2ccccc2)c(-c2ccccc2)c(-c2ccc(F)cc2)n1CC[C@@H](O)C[C@@H](O)CC(=O)O [Atorvastatin] was tested. Which HDL-C (Type 2 Diabetic Subjects [1]; Post treatment, 12 weeks) did it give?
Answer: Its HDL-C is 48.2±6.01 mg/dL and 48.2 ± 6.01$ mg/dL.

Question: And the LDL-C (Type 2 Diabetic Subjects [1]; Post treatment, 12 weeks)?
Answer: Its LDL-C is 87.6 ± 19.07 mg/dL.

Question: And the “Total Cholesterol” value (Type 2 Diabetic Subjects [1]; Post treatment, 12 weeks)?
Answer: Its value is 146 ± 24.52 mg/dL.

Question: And the Triglycerides (Type 2 Diabetic Subjects [1]; Post treatment, 12 weeks)?
Answer: Its Triglycerides is 102.8 ± 40.61 mg/dL.

Question: What about the HDL-C (Type 2 Diabetic Subjects [1]; Pre treatment) of the same compound?
Answer: Its HDL-C is 42.77 ± 6.13 mg/dL.

Question: What about the LDL-C (Type 2 Diabetic Subjects [1]; Pre treatment) of the same compound?
Answer: Its LDL-C is 133.2 ± 38.09 mg/dL.

Question: What about the “Total Cholesterol” value (Type 2 Diabetic Subjects [1]; Pre treatment) of the same compound?
Answer: The value was 185.7 ± 36.38 mg/dL.

Question: And the Triglycerides (Type 2 Diabetic Subjects [1]; Pre treatment)?
Answer: Its Triglycerides is 169.1 ± 67.51 mg/dL.

Question: And the “Absolute change in ABI” value (Type 2 Diabetic Subjects [2]; 12 weeks)?
Answer: The value was 0.08 ± 0.06.

Question: And the “Absolute change in AIx” value (Type 2 Diabetic Subjects [2]; 12 weeks)?
Answer: Its value is −12.14 ± 5.44%.

Question: What about the “Absolute change in CO” value (Type 2 Diabetic Subjects [2]; 12 weeks) of the same compound?
Answer: The value was 0.84 ± 0.43 lt/min.

Question: What about the “Absolute change in PWV” value (Type 2 Diabetic Subjects [2]; 12 weeks) of the same compound?
Answer: Its value is −175.5 ± 110.82 cm/s.

Question: What about the “Absolute change in SEVR” value (Type 2 Diabetic Subjects [2]; 12 weeks) of the same compound?
Answer: The value was 11.09 ± 6.51%.

Question: And the “Absolute change in SVR” value (Type 2 Diabetic Subjects [2]; 12 weeks)?
Answer: Its value is −182.3 ± 109.61 dyne · sec/cm^5.

Question: What about the ABI (Type 2 Diabetic Subjects [2]; Post TT, 12 weeks) of the same compound?
Answer: Its ABI is 1.10 ± 0.04$.

Question: What about the AIx (Type 2 Diabetic Subjects [2]; Post TT, 12 weeks) of the same compound?
Answer: The AIx was 123.4 ± 13.4$ %.

Question: What about the CO (Type 2 Diabetic Subjects [2]; Post TT, 12 weeks) of the same compound?
Answer: The CO was 5.15 ± 0.47$ lt/min.

Question: What about the PWV (Type 2 Diabetic Subjects [2]; Post TT, 12 weeks) of the same compound?
Answer: The PWV was 1346 ± 147.6$ cm/s.

Question: And the SEVR (Type 2 Diabetic Subjects [2]; Post TT, 12 weeks)?
Answer: Its SEVR is 146.5 ± 16.09$ %.

Question: And the “SVR (Systemic Vascular Resistance)” value (Type 2 Diabetic Subjects [2]; Post TT, 12 weeks)?
Answer: The value was 1336.95 ± 251.3$ dyne · sec/cm^5.

Question: And the ABI (Type 2 Diabetic Subjects [2]; Pre TT)?
Answer: The ABI was 1.02 ± 0.07.

Question: What about the AIx (Type 2 Diabetic Subjects [2]; Pre TT) of the same compound?
Answer: The AIx was 135.5 ± 14.71%.

Question: And the CO (Type 2 Diabetic Subjects [2]; Pre TT)?
Answer: Its CO is 4.13 ± 0.65 lt/min.

Question: And the PWV (Type 2 Diabetic Subjects [2]; Pre TT)?
Answer: Its PWV is 1522 ± 127.7 cm/s.

Question: What about the SEVR (Type 2 Diabetic Subjects [2]; Pre TT) of the same compound?
Answer: Its SEVR is 135.4 ± 19.11%.

Question: What about the “SVR (Systemic Vascular Resistance)” value (Type 2 Diabetic Subjects [2]; Pre TT) of the same compound?
Answer: Its value is 1519.25 ± 296.3 dyne · sec/cm^5.

Question: And the “Absolute change in MDA” value (Type 2 Diabetic Subjects [3]; 12 weeks)?
Answer: Its value is −1.17 ± 0.75 nM/ml.

Question: And the “Absolute change in NO” value (Type 2 Diabetic Subjects [3]; 12 weeks)?
Answer: Its value is 28.45 ± 12.30 μM/L.

Question: What about the “Absolute change in hsCRP” value (Type 2 Diabetic Subjects [3]; 12 weeks) of the same compound?
Answer: The value was −2.10 ± 1.26 Mg/L.

Question: And the “Mean percentage change in MDA” value (Type 2 Diabetic Subjects [3]; 12 weeks)?
Answer: The value was −30.55 ± 19.81%.

Question: What about the “Mean percentage change in NO” value (Type 2 Diabetic Subjects [3]; 12 weeks) of the same compound?
Answer: Its value is 88.44 ± 50.97%.

Question: What about the “Mean percentage change in hsCRP” value (Type 2 Diabetic Subjects [3]; 12 weeks) of the same compound?
Answer: The value was −64.90 ± 26.99%.

Question: What about the MDA (Type 2 Diabetic Subjects [3]; Post TT, 12 weeks) of the same compound?
Answer: The MDA was 2.37 ± 0.59 nM/ml.

Question: And the NO (Type 2 Diabetic Subjects [3]; Post TT, 12 weeks)?
Answer: Its NO is 63.69 ± 15.04 μM/L.

Question: What about the hsCRP (Type 2 Diabetic Subjects [3]; Post TT, 12 weeks) of the same compound?
Answer: The hsCRP was 0.97 ± 0.78 Mg/L.

Question: What about the MDA (Type 2 Diabetic Subjects [3]; Pre TT) of the same compound?
Answer: Its MDA is 3.54 ± 0.85 nM/ml.

Question: What about the NO (Type 2 Diabetic Subjects [3]; Pre TT) of the same compound?
Answer: Its NO is 35.24 ± 9.71 μM/L.

Question: And the hsCRP (Type 2 Diabetic Subjects [3]; Pre TT)?
Answer: Its hsCRP is 3.08 ± 1.38 Mg/L.
